# Experiments:
# [1] = Effects of pH on isomerization at 40° C. (Example 5); assay type: physicochemical
# [2] = tested on: human breast tumors grown subcutaneously in mice; settings: transdermally delivered; cited from earlier work
# [3] = Effects of isopropyl myristate, nature of the alcohol and alcohol/phosphate buffer ratio on isomerization (Example 2); assay type: physicochemical
# Source text: The initial E/Z ratio was 63%/37%. • Reference solution: Gel formulation without the gelling agent KLUCEL • Solution II: Reference solution without Isopropyl myristate and containing ethanol • Solution III: Solution II with the ethanol replaced by Isopropyl alcohol • Solution IV: Solution II with the ethanol/buffer ratio of 50/50 instead of 66.5/33.5
# [4] = in vivo; cited from earlier work
# [5] = Initial E/Z 100/0, Buffer pH 2.2, Final pH 4, Mo. 1
# [6] = Initial E/Z 100/0, Buffer pH 2.2, Final pH 4, Mo. 2
# [7] = Initial E/Z 100/0, Buffer pH 2.2, Final pH 4, Mo. 3
# [8] = Initial E/Z 100/0, Buffer pH 4, Final pH 6, Day
# [9] = Initial E/Z 100/0, Buffer pH 4, Final pH 6, Day 8
# [10] = Initial E/Z 100/0, Buffer pH 4, Final pH 6, Mo. 1
# [11] = Initial E/Z 100/0, Buffer pH 4, Final pH 6, Mo. 2
# [12] = Initial E/Z 100/0, Buffer pH 4, Final pH 6, Mo. 3
# [13] = Initial E/Z 100/0, Buffer pH 4, Final pH 6, Time 0
# [14] = Initial E/Z 100/0, Buffer pH 6, Final pH 7, Day
# [15] = Initial E/Z 100/0, Buffer pH 6, Final pH 7, Day 8
# [16] = Initial E/Z 100/0, Buffer pH 6, Final pH 7, Mo. 1
# [17] = Initial E/Z 100/0, Buffer pH 6, Final pH 7, Mo. 2
# [18] = Initial E/Z 100/0, Buffer pH 6, Final pH 7, Mo. 3
# [19] = Initial E/Z 100/0, Buffer pH 6, Final pH 7, Time 0
# [20] = Initial E/Z 100/0, Buffer pH 8, Final pH 9, Day
# [21] = Initial E/Z 100/0, Buffer pH 8, Final pH 9, Day 8
# [22] = Initial E/Z 100/0, Buffer pH 8, Final pH 9, Mo. 1
# [23] = Initial E/Z 100/0, Buffer pH 8, Final pH 9, Mo. 2
# [24] = Initial E/Z 100/0, Buffer pH 8, Final pH 9, Mo. 3
# [25] = Initial E/Z 100/0, Buffer pH 8, Final pH 9, Time 0
# [26] = Initial E/Z 100/0, Buffer pH 10, Final pH 12, Day
# [27] = Initial E/Z 100/0, Buffer pH 10, Final pH 12, Day 8
# [28] = Initial E/Z 100/0, Buffer pH 10, Final pH 12, Mo. 1
# [29] = Initial E/Z 100/0, Buffer pH 10, Final pH 12, Mo. 2
# [30] = Initial E/Z 100/0, Buffer pH 10, Final pH 12, Mo. 3
# [31] = Initial E/Z 100/0, Buffer pH 10, Final pH 12, Time 0
compound,measurement,setting,value
"CCC(=C(c1ccc(O)cc1)c1ccc(OCCN(C)C)cc1)c1ccccc1 [4-hydroxy tamoxifen, 1-[4-(2-N-dimethylaminoethoxy)phenyl]-1-(4-hydroxyphenyl)-2-phenylbut-1-ene]",% Z,"[1]; Initial E/Z 100/0, Buffer pH 2.2, Final pH 4, Day 8",71.0%
same,% E,[1]; [5],47.4%
same,% Z,[1]; [5],52.6%
same,% E,[1]; [6],48.0%
same,% Z,[1]; [6],52.0%
same,% E,[1]; [7],47.7%
same,% Z,[1]; [7],52.3%
same,% Z,"[1]; Initial E/Z 100/0, Buffer pH 2.2, Final pH 4, Time 0",100.0%
same,% E,[1]; [8],34.3%
same,% Z,[1]; [8],65.7%
same,% E,[1]; [9],12.5%
same,% Z,[1]; [9],87.5%
same,% E,[1]; [10],43.2%
same,% Z,[1]; [10],56.8%
same,% E,[1]; [11],48.1%
same,% Z,[1]; [11],51.9%
same,% E,[1]; [12],48.5%
same,% Z,[1]; [12],51.5%
same,% E,[1]; [13],0.0%
same,% Z,[1]; [13],100.0%
same,% E,[1]; [14],9.6%
same,% Z,[1]; [14],90.4%
same,% E,[1]; [15],2.9%
same,% Z,[1]; [15],97.1%
same,% E,[1]; [16],16.6%
same,% Z,[1]; [16],83.4%
same,% E,[1]; [17],31.3%
same,% Z,[1]; [17],68.6%
same,% E,[1]; [18],40.8%
same,% Z,[1]; [18],59.2%
same,% E,[1]; [19],0.0%
same,% Z,[1]; [19],100.0%
same,% E,[1]; [20],11.6%
same,% Z,[1]; [20],88.4%
same,% E,[1]; [21],3.4%
same,% Z,[1]; [21],96.6%
same,% E,[1]; [22],20.6%
same,% Z,[1]; [22],79.4%
same,% E,[1]; [23],36.4%
same,% Z,[1]; [23],63.6%
same,% E,[1]; [24],44.1%
same,% Z,[1]; [24],55.9%
same,% E,[1]; [25],0.0%
same,% Z,[1]; [25],100.0%
same,% E,[1]; [26],48.8%
same,% Z,[1]; [26],51.2%
same,% E,[1]; [27],48.3%
same,% Z,[1]; [27],51.7%
same,% E,[1]; [28],48.8%
same,% Z,[1]; [28],51.2%
same,% E,[1]; [29],48.8%
same,% Z,[1]; [29],51.2%
same,% E,[1]; [30],48.9%
same,% Z,[1]; [30],51.1%
same,% E,[1]; [31],0.0%
same,% Z,[1]; [31],100.0%
same,% E,"[1]; Initial E/Z ratios of 37/63, Buffer pH 2.2, Final pH 4, Time 0",62.9%
same,% E,"[1]; Initial E/Z ratios of 100/0, Buffer pH 2.2, Final pH 4, Time 0",0.0%
same,anti-tumor effect,[2],exhibits an anti-tumor effect
same,effect of replacing ethanol by isopropyl alcohol and eliminating the isopropyl myristate on the reversible kinetics,[3]; 0.06% solutions,no significant effect
same,effect of increasing the aqueous vehicle (buffer) concentration from 33.5% to 50% on the rate constant,[3]; 25° C. and 30° C.,greatly increases the rate constant
same,effect of increasing the aqueous vehicle (buffer) concentration from 33.5% to 50% on the rate constant,[3]; 40° C.,less pronounced
same,dependence of the isomerization rate on the dielectric constant of the solvent medium,[3]; water concentration in the medium increases,increased as the dielectric constant of the solvent medium is increased
same,distribution after percutaneous administration,[4],"can concentrate in local breast tumors, with very little systemic distribution"
